Data published in patent publication US6610853B1, “N-(phenylsulfonyl)picolinamide derivatives, process for producing the same, and herbicide” (Kureha Kagaku Kogyo K.K., priority 2000, dated 2003).

Tests used:
Assay in all cases: Test on herbicidal activity by foliar application
Format in all cases: in vivo
Conditions in all cases: foliar spray, 1 kg/ha, plants at 1-2 leaf stage in pots, evaluated 14 days after spraying
Veronica hederaefolia = system: Veronica hederaefolia
Method: (§1) Test on Herbicidal Activity by Foliar Application: Herbicidal solutions of each test compounds, which were prepared by dissolving at predetermined concentrations such a wettable powder of the test compound as that described in the above Formulation Example, were sprayed at dosages of 1 kg/ha over foliar parts of Amaranthus retroflexus, Bidens pilosa, Sinapis arvensis, Stellaria media, Solanum nigrum, Abutilon theophrasti, Convolvulus arvensis, Matricaria chamomilla, Galium aparine, Veronica hederaefolia, and Setaria viridis (each test plant is 1-2 leaf stage) which were grown in pots. 14 days latter after spraying, its herbicidal activity was evaluated in accordance with the below-described system. Herbicidal Activity 1: less than 30% inhibition 2: 30% or more-50% inhibition 3: 50% or more-70% inhibition 4: 70% or more-90% inhibition 5: 90% or more inhibition

Bidens pilosa = system: Bidens pilosa
Method: as §1

Convolvulus arvensis = system: Convolvulus arvensis
Method: as §1

Matricaria chamomilla = system: Matricaria chamomilla
Method: as §1

Sinapis arvensis = system: Sinapis arvensis
Method: as §1

Solanum nigrum = system: Solanum nigrum
Method: as §1

Abutilon theophrasti = system: Abutilon theophrasti
Method: as §1

Setaria viridis = system: Setaria viridis
Method: as §1

Amaranthus retroflexus = system: Amaranthus retroflexus
Method: as §1

Stellaria media = system: Stellaria media
Method: as §1

Galium aparine = system: Galium aparine
Method: as §1

| SMILES | Herbicidal activity, Veronica hederaefolia (Veronica hederaefolia) | Herbicidal activity, Bidens pilosa (Bidens pilosa) | Herbicidal activity, Convolvulus arvensis (Convolvulus arvensis) | Herbicidal activity, Matricaria chamomilla (Matricaria chamomilla) | Herbicidal activity, Sinapis arvensis (Sinapis arvensis) | Herbicidal activity, Solanum nigrum (Solanum nigrum) | Herbicidal activity, Abutilon theophrasti (Abutilon theophrasti) | Herbicidal activity, Setaria viridis (Setaria viridis) | Herbicidal activity, Amaranthus retroflexus (Amaranthus retroflexus) | Herbicidal activity, Stellaria media (Stellaria media) | Herbicidal activity, Galium aparine (Galium aparine) |
| --- | --- | --- | --- | --- | --- | --- | --- | --- | --- | --- | --- |
| O=C(NS(=O)(=O)c1c(Cl)cccc1Cl)c1cc(Cl)cc(Cl)n1 [Compound I-557, 4,6-Dichloro-N-[(2,6-Dichlorophenyl)sulfonyl]-pyridine-2-carboxamide] | 5 (90% or more inhibition) | 5 (90% or more inhibition) | 5 (90% or more inhibition) | 5 (90% or more inhibition) | 5 (90% or more inhibition) | 5 (90% or more inhibition) | 5 (90% or more inhibition) | 5 (90% or more inhibition) | 5 (90% or more inhibition) | 5 (90% or more inhibition) | 5 (90% or more inhibition) |
| COc1cc(Cl)cc(C(=O)NS(=O)(=O)c2c(Cl)cccc2Cl)n1 [Compound I-581, N-[(2,6-Dichlorophenyl)sulfonyl]-4-chloro-6-methoxy-2-pyridinecarboxamide] | 4 (70% or more-90% inhibition) | 5 (90% or more inhibition) | 4 (70% or more-90% inhibition) | 5 (90% or more inhibition) | 5 (90% or more inhibition) | 5 (90% or more inhibition) | 4 (70% or more-90% inhibition) | 4 (70% or more-90% inhibition) | 5 (90% or more inhibition) | 5 (90% or more inhibition) | 5 (90% or more inhibition) |
| O=C(NS(=O)(=O)c1c(Cl)cccc1Cl)c1cccc(Cl)n1 [Compound I-591, N-[(2,6-Dichlorophenyl)sulfonyl]-6-chloro-2-pyridinecarboxamide] | 5 (90% or more inhibition) | 5 (90% or more inhibition) | 5 (90% or more inhibition) | 5 (90% or more inhibition) | 5 (90% or more inhibition) | 5 (90% or more inhibition) | 5 (90% or more inhibition) | 1 (less than 30% inhibition) | 5 (90% or more inhibition) | 5 (90% or more inhibition) | 5 (90% or more inhibition) |
| COc1ccc(C(=O)NS(=O)(=O)c2c(Cl)cccc2Cl)nc1 [Compound I-594, N-[(2,6-Dichlorophenyl)sulfonyl]-5-methoxy-2-pyridinecarboxamide] | 4 (70% or more-90% inhibition) | 4 (70% or more-90% inhibition) | 2 (30% or more-50% inhibition) | 4 (70% or more-90% inhibition) | 5 (90% or more inhibition) | 2 (30% or more-50% inhibition) | 4 (70% or more-90% inhibition) | 2 (30% or more-50% inhibition) | 2 (30% or more-50% inhibition) | 5 (90% or more inhibition) | 4 (70% or more-90% inhibition) |
| COc1cc(Cl)nc(C(=O)NS(=O)(=O)c2c(Cl)cccc2Cl)c1 [Compound I-615, 6-Chloro-N-[(2,6-Dichlorophenyl)sulfonyl]-4-methoxypyridine-2-carboxamide] | 4 (70% or more-90% inhibition) | 5 (90% or more inhibition) | 4 (70% or more-90% inhibition) | 5 (90% or more inhibition) | 5 (90% or more inhibition) | 5 (90% or more inhibition) | 5 (90% or more inhibition) | 4 (70% or more-90% inhibition) | 4 (70% or more-90% inhibition) | 5 (90% or more inhibition) | 5 (90% or more inhibition) |
| COc1ccc(C(=O)NS(=O)(=O)c2c(Cl)cccc2Cl)nc1Cl [Compound I-618, N-[(2,6-Dichlorophenyl)sulfonyl]-6-chloro-5-methoxy-2-pyridinecarboxamide] | 5 (90% or more inhibition) | 5 (90% or more inhibition) | 3 (50% or more-70% inhibition) | 5 (90% or more inhibition) | 5 (90% or more inhibition) | 5 (90% or more inhibition) | 5 (90% or more inhibition) | 2 (30% or more-50% inhibition) | 2 (30% or more-50% inhibition) | 5 (90% or more inhibition) | 4 (70% or more-90% inhibition) |
| COc1cc(Cl)nc(C(=O)NS(=O)(=O)c2ccccc2Cl)c1 [Compound I-705, N-[(2-Chlorophenyl)sulfonyl]-6-chloro-4-methoxypyridine-2-carboxamide] | 4 (70% or more-90% inhibition) | 5 (90% or more inhibition) | 5 (90% or more inhibition) | 4 (70% or more-90% inhibition) | 5 (90% or more inhibition) | 4 (70% or more-90% inhibition) | 2 (30% or more-50% inhibition) | 3 (50% or more-70% inhibition) | 4 (70% or more-90% inhibition) | 5 (90% or more inhibition) | 4 (70% or more-90% inhibition) |
| O=C(NS(=O)(=O)c1ccccc1OC(F)(F)F)c1cccc(Cl)n1 [Compound I-771, N-[[2-Trifluoromethoxyphenyl]sulfonyl]-6-chloro-2-pyridinecarboxamide] | 5 (90% or more inhibition) | 5 (90% or more inhibition) | 4 (70% or more-90% inhibition) | 5 (90% or more inhibition) | 5 (90% or more inhibition) | 5 (90% or more inhibition) | 5 (90% or more inhibition) | 1 (less than 30% inhibition) | 5 (90% or more inhibition) | 5 (90% or more inhibition) | 5 (90% or more inhibition) |
